Assay results reported in patent US10214492B2, “Heterocyclic inhibitors of MCT4” (Vettore, LLC, priority 2016, dated 2019).

Columns and labels:
[1] = biological target: MCT4 (Homo sapiens (Human), UniProt O15427); assay: Assay 3: MCT4-mediated lactate transport in MDA-MB-231 breast cancer cells; assay type: cell-based; conditions: MDA-MB-231 cells; lactate transport
How it was run: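 Read-out is BCECF fluorescence tracking the intracellular pH shift from MCT4-mediated lactate/H+ co-transport. Before measurement, MDA-MB-231 cells take up BCECF-AM for 5 min at 37° C, then are washed into Tyrode's Solution, pH 7.4.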

[2] = biological target: MCT1 (Homo sapiens (Human), UniProt P53985); assay: Assay 4: MCT1-mediated lactate transport in BT20 breast cancer cells; assay type: cell-based; conditions: Table 27
How it was run: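 Transport started with 10 mM L-lactate on BCECF-loaded BT20 cells in Tyrode's Solution, pH 7.4. Dye loading: BCECF-AM ester (30 mM DMSO stock), 5 min at 37° C, then one wash.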

[3] = Metabolic stability in human liver microsomes (in vitro t1/2); assay type: in vitro ADME; conditions: for half-life at 2 µM / Human microsome t1/2, min: human liver microsomes 0.5 mg/mL, 2 μM compound; for half-life at 2 µM: read-out: Human microsome t1/2, min; for Human microsome % 60 min: human liver microsomes
Procedure: (§1) The following are assays that may be used to evaluate the metabolic stability of compounds of Formula (I) in human, rat, or mouse microsomes. The assays follow a common procedure recited below. 1. […] Two separated experiments were performed as follows. a) With NADPH: 10 μL of 20 mg/mL liver microsomes and 40 μL of 10 mM NADPH were added to the incubations. […] The final concentration of microsomes was 0.5 mg/mL. 3. The reaction was started with the addition of 4 μL of 200 μM control compound or test compound solutions. Verapamil was used as positive control in this study. The final concentration of test compound or control compound was 2 μM. 4. Aliquots of 50 μL were taken from the reaction solution at 0, 15, 30, 45 and 60 min. […] Samples were centrifuged at 3,220 g for 40 minutes. A 90 μL aliquot of the supernatant was mixed with 90 μL of ultra-pure H2O and then used for LC-MS/MS analysis. 5. Data analysis. All calculations were carried out using Microsoft Excel. Peak areas were determined from extracted ion chromatograms. The slope value, k, was determined by linear regression of the natural logarithm of the remaining percentage of the parent drug vs. incubation time curve. The in vitro half-life (in vitro t1/2) was determined from the slope value: in vitro t1/2=−(0.693)/k.

[4] = Metabolic stability in rat liver microsomes (in vitro t1/2); assay type: in vitro ADME; conditions: for half-life at 2 µM: rat liver microsomes 0.5 mg/mL, 2 μM compound, read-out: Rat microsome t1/2, min; for Rat microsome % 60 min: rat liver microsomes
Procedure: as §1

[5] = Metabolic stability in mouse liver microsomes (in vitro t1/2); assay type: in vitro ADME; conditions: for half-life at 2 µM: mouse liver microsomes 0.5 mg/mL, 2 μM compound, read-out: Mouse microsome t1/2, min; for Mouse microsome % 60 min: mouse liver microsomes
Procedure: as §1

[6] = Pharmacokinetic assay in mouse (IV 3 mg/kg, PO 10 mg/kg); assay type: in vivo; conditions: Male CD1 mouse; for Mouse F: oral bioavailability; for Mouse F / half-life: PO 10 mg/kg; for half-life / Vd: plasma; for half-life: read-out: Mouse t1/2 (converted); for Vd: volume of distribution, read-out: Mouse Vss
From the text: (§2) The following are assays that may be used to evaluate the pharmacokinetic properties of Formula (I) in mouse or rat. The assays follow a common procedure recited below.
(§3) 1. […] For PO (oral gavage), DMSO/PEG400 (10:90). Formulations freshly prepared on the day of dosing or prior to dosing. Storage at room temperature.
(§4) 2. Test Species: For Mouse: Male CD1 strain, approximately 6-8 weeks in age, approximately 20-30 g. For Rat: Male Sprague-Dawley strain, approximately 6-8 weeks in age, approximately 200-300 g.
(§5) 3. Dose Level: For IV, 3 mg/kg. For PO, 10 mg/kg.
(§6) 4. Number of animals: 3 per assay.
(§7) 5. PK time points: For IV (plasma): 5 min, 15 min, 1, 2, 4, 6, 8, 24 h post dose. For PO (plasma): 15 min, 30 min, 1, 2, 4, 6, 8, 24 h post dose.
(§8) 6. Blood Sample Collection and Processing. Blood was collected (˜0.2 mL per time point) from jugular vein. Blood of each sample was transferred into plastic micro centrifuge tubes containing anticoagulant of EDTA-K2. Blood samples were centrifuged at 2,000 g for 5 minutes at 4° C. to obtain plasma.
(§9) 7. Samples Analysis: Plasma samples were analyzed using LC/MS/MS method, and pharmacokinetic parameters (half-life: t1/2; oral bioavailability: F; volume of distribution: Vss).

[7] = Pharmacokinetic assay in rat (IV 3 mg/kg, PO 10 mg/kg); assay type: in vivo; conditions: Male Sprague-Dawley rat; for Rat F: oral bioavailability; for Rat F / half-life: PO 10 mg/kg; for half-life / Vd: plasma; for half-life: read-out: Rat t1/2 (converted); for Vd: volume of distribution, read-out: Rat Vss
From the text: as §2, §3, §4, §5, §6, §7, §8, §9

MCT1, sequence (P53985 whole entry): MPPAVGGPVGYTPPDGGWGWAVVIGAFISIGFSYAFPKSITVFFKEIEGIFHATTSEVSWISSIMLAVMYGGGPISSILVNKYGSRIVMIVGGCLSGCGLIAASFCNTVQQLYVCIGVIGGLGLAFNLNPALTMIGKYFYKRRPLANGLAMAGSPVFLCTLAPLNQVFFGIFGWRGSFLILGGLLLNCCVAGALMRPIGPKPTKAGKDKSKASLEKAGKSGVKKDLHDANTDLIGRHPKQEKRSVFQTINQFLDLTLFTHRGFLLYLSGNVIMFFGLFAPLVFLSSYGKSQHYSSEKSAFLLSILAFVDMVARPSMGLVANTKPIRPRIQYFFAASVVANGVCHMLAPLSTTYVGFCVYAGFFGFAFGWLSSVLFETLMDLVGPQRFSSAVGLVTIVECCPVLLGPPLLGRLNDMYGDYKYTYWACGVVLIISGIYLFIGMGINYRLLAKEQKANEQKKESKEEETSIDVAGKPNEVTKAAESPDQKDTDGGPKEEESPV
MCT1, sequence (P35613 140-385 partner): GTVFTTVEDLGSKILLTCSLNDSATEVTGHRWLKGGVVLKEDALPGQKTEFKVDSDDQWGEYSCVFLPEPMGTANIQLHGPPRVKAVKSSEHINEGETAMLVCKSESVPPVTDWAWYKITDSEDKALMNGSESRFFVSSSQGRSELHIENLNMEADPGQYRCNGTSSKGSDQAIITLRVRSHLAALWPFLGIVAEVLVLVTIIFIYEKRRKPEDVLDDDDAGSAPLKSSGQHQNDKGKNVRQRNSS
MCT4, sequence (O15427 whole entry, looked up): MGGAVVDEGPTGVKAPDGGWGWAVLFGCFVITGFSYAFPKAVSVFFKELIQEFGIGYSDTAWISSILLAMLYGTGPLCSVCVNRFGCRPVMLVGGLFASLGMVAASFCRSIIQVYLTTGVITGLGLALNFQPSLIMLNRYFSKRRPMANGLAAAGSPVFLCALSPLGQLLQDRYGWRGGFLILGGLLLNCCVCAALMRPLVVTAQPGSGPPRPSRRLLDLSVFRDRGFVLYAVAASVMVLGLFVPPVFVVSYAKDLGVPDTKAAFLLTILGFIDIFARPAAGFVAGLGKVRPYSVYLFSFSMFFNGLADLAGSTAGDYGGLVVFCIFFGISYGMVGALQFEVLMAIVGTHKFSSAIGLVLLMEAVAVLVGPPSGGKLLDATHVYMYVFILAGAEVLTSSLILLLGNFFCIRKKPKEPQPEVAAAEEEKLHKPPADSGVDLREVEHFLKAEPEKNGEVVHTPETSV
MCT4, sequence (P35613 whole entry partner, looked up): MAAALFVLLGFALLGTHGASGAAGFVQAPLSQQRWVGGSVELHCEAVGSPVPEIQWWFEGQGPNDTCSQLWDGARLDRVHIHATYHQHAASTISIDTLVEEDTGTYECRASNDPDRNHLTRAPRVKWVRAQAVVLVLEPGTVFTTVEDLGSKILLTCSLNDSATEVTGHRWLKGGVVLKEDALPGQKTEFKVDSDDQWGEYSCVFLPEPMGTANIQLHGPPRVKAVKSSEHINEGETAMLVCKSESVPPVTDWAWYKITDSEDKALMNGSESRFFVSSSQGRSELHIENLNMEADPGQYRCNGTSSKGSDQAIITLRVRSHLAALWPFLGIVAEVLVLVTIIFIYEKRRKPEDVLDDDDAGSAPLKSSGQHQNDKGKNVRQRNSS

Structure (SMILES)	IC50 [1] [nM]	IC50 [2] [nM]	half-life at 2 µM [3] [h]	Human microsome % 60 min [3] [%]	half-life at 2 µM [4] [h]	Rat microsome % 60 min [4] [%]	half-life at 2 µM [5] [h]	Mouse microsome % 60 min [5] [%]	Mouse F [6] [%]	half-life [6] [h]	Vd [6] [L/kg]	Rat F [7] [%]	half-life [7] [h]	Vd [7] [L/kg]	Human microsome t1/2, min [3]
Cn1ncc2cccc(-n3nc(COC(C)(C)C(=O)O)cc3-c3cccc(OCC(C)(C)C)c3)c21 [Example 167, 2-([5-[3-(2,2-dimethylpropoxy)phenyl]-1-(1-methyl-1H-indazol-7-yl)-1H-pyrazol-3-yl]-methoxy)-2-methylpropanoic acid]	0.59	36000	4.17	84	1.23	72	7.17	97	24	1.7	2.6	72	2.2	1.2	–
Cc1ccccc1-n1nc(COC(C)(C)C(=O)O)cc1-c1cccc(OC2CC2)c1 [Example 188, 2-([5-(3-Cyclopropoxyphenyl)-1-(2-methyl-phenyl)-1H-pyrazol-3-yl]methoxy)-2-methylpropanoic acid]	7.5	15000	–	101	8.17	87	23.3	92	–	–	–	–	–	–	∞
CCOc1ccccc1Cn1nc(COC(C)(C)C(=O)O)cc1-c1cc(Cl)cc(OC)c1 [Example 196, 2-([5-(3-Chloro-5-methoxyphenyl)-1-[(2-ethoxyphenyl)methyl]1H-pyrazol-3-yl]-methoxy)-2-methylpropanoic acid]	1.9	38000	1.47	62	0.633	32	0.617	33	–	–	–	–	–	–	–
CCOc1ccccc1Cn1nc(COC(C)(C)C(=O)O)cc1-c1ccc2cnn(CC)c2c1 [Example 198, 2-([1-[(2-Ethoxyphenyl)methyl]-5-(1-ethyl-1H-indazol-6-yl)-1H-pyrazol-3-yl]-methoxy)-2-methylpropanoic acid]	3.5	26000	3.45	80	3.42	82	4.05	84	–	–	–	–	–	–	–
CCOc1ccccc1Cn1nc(COC(C)(C)C(=O)O)cc1-c1cccc(OC2CC2)c1 [Example 201, 2-([5-(3-Cyclopropoxyphenyl)-1-[(2-ethoxy-phenyl)methyl]-1H-pyrazol-3-yl]methoxy)-2-methylpropanoic acid]	7.2	15000	1.38	58	0.75	39	1.38	58	–	–	–	–	–	–	–
CC(C)(OCc1cc(-c2cccc(OC3CC3)c2)n(Cc2ccccc2N2CCCC2)n1)C(=O)O [Example 202, 2-([5-(3-Cyclopropoxyphenyl)-1-[[2-(pyrrolidin-1-yl)phenyl]methyl]|-1H-pyrazol-3-yl]methoxy)-2-methylpropanoic acid]	6.2	23000	0.617	32	0.183	2	0.633	32	–	–	–	–	–	–	–
CCOc1ccccc1Cn1nc(COC(C)(C)C(=O)O)cc1-c1cc(OC)cc(OC)c1 [Example 211]	2.4	20000	3	78	1.22	57	0.817	43	57	1.9	1.5	55	3.6	3.6	–
CC(C)(OCc1cc(-c2cccc(OC3CC3)c2)n(-c2ccccc2N2CCCC2)n1)C(=O)O [Example 221, 2-([5-(3-Cyclopropoxyphenyl)-1-[2-(pyrrolidin-1-yl)phenyl]-1H-pyrazol-3-yl]-methoxy)-2-methylpropanoic acid]	3.2	38000	1.13	56	0.617	33	0.633	34	–	–	–	–	–	–	–
CC[C@@](C)(OCc1cc(-c2cc(OC)cc(OC)c2)n(-c2ccccc2Cl)n1)C(=O)O [Example 222, (2R)-2-([1-(2-Chlorophenyl)-5-(3,5-dimethoxyphenyl)-1H-pyrazol-3-yl]-methoxy)-2-methylbutanoic acid]	3.9	94000	–	110	5.58	90	16.7	94	–	–	–	–	–	–	∞
Cn1ncc2ccc(-c3cc(COC(C)(C)C(=O)O)nn3Cc3ccccc3Cl)cc21 [Example 226, 2-([1-[(2-Chlorophenyl)methyl]-5-(1-methyl-1H-indazol-6-yl)-1H-pyrazol-3-yl]-methoxy)-2-methylpropanoic acid]	15	54000	7.8	95	7.58	88	11.4	95	–	–	–	–	–	–	–
CCCn1ncc2ccc(-c3cc(COC(C)(C)C(=O)O)nn3-c3ccccc3N3CCC3)cc21 [Example 246, 2-([1-[2-(Azetidin-1-yl)phenyl]-5-(1-propyl-1H-indazol-6-yl)-1H-pyrazol-3-yl]methoxy)-2-methylpropanoic acid]	3.1	32000	1.58	65	1.82	69	2.8	81	–	–	–	52	4.7	1.7	–
COc1cc(OC)cc(-c2cc(COC(C)(C)C(=O)O)nn2-c2ccccc2N2CCC2)c1 [Example 251, 2-((1-(2-(Azetidin-1-yl)phenyl)-5-(3,5-dimethoxyphenyl)-1H-pyrazol-3-yl)methoxy)-2-methylpropanoic acid]	5.6	98000	3.02	77	3.02	83	1.55	63	–	–	–	98	3	0.38	–
CCn1ncc2ccc(-c3cc(CO[C@](C)(CC)C(=O)O)nn3-c3ccccc3N3CCC3)cc21 [Example 269, (2R)-2-([1-[2-(Azetidin-1-yl)phenyl]-5-(1-ethyl-1H-indazol-6-yl)-1H-pyrazol-3-yl]methoxy)-2-methylbutanoic acid]	1	58000	–	–	–	–	–	–	100	3.3	1.3	–	–	–	–
